Test results as given in the kinase profiling compilation of Christmann-Franck et al. (2016).

Key:
[1] = target: ALK (human) (UniProt Q9UM73); test: KINOMEscan competition binding; conditions: compound 10.0 µM
[2] = target: CAMK1D (human) (UniProt Q8IU85); test: KINOMEscan competition binding; conditions: compound 10.0 µM
[3] = target: CAMK2A (human) (UniProt Q9UQM7); test: KINOMEscan competition binding; conditions: compound 10.0 µM
[4] = target: CLK1 (human) (UniProt P49759); test: KINOMEscan competition binding; conditions: compound 10.0 µM
[5] = target: CLK2 (human) (UniProt P49760); test: KINOMEscan competition binding; conditions: compound 10.0 µM
[6] = target: DAPK1 (human) (UniProt P53355); test: KINOMEscan competition binding; conditions: compound 10.0 µM
[7] = target: DAPK2 (human) (UniProt Q9UIK4); test: KINOMEscan competition binding; conditions: compound 10.0 µM
[8] = target: DAPK3 (human) (UniProt O43293); test: KINOMEscan competition binding; conditions: compound 10.0 µM
[9] = target: DCLK1 (human) (UniProt O15075); test: KINOMEscan competition binding; conditions: compound 10.0 µM
[10] = target: DCLK2 (human) (UniProt Q8N568); test: KINOMEscan competition binding; conditions: compound 10.0 µM
[11] = target: FER (human) (UniProt P16591); test: KINOMEscan competition binding; conditions: compound 10.0 µM
[12] = target: GAK (human) (UniProt O14976); test: KINOMEscan competition binding; conditions: compound 10.0 µM
[13] = target: IGF1R (human) (UniProt P08069); test: KINOMEscan competition binding; conditions: compound 10.0 µM
[14] = target: INSR (human) (UniProt P06213); test: KINOMEscan competition binding; conditions: compound 10.0 µM
[15] = target: INSRR (human) (UniProt P14616); test: KINOMEscan competition binding; conditions: compound 10.0 µM
[16] = target: MYLK (human) (UniProt Q15746); test: KINOMEscan competition binding; conditions: compound 10.0 µM
[17] = target: PLK3 (human) (UniProt Q9H4B4); test: KINOMEscan competition binding; conditions: compound 10.0 µM
[18] = target: PLK4 (human) (UniProt O00444); test: KINOMEscan competition binding; conditions: compound 10.0 µM
[19] = target: PRKD1 (human) (UniProt Q15139); test: KINOMEscan competition binding; conditions: compound 10.0 µM
[20] = target: PRKD3 (human) (UniProt O94806); test: KINOMEscan competition binding; conditions: compound 10.0 µM
[21] = target: PTK2 (human) (UniProt Q05397); test: KINOMEscan competition binding; conditions: compound 10.0 µM
[22] = target: PTK2B (human) (UniProt Q14289); test: KINOMEscan competition binding; conditions: compound 10.0 µM
[23] = target: RPS6KA1 KD2 (human) (UniProt Q15418); test: KINOMEscan competition binding; conditions: compound 10.0 µM
[24] = target: RPS6KA2 KD2 (human) (UniProt Q15349); test: KINOMEscan competition binding; conditions: compound 10.0 µM
[25] = target: RPS6KA6 KD2 (human) (UniProt Q9UK32); test: KINOMEscan competition binding; conditions: compound 10.0 µM
[26] = target: SLK (human) (UniProt Q9H2G2); test: KINOMEscan competition binding; conditions: compound 10.0 µM
[27] = target: STK33 (human) (UniProt Q9BYT3); test: KINOMEscan competition binding; conditions: compound 10.0 µM
[28] = target: TNK1 (human) (UniProt Q13470); test: KINOMEscan competition binding; conditions: compound 10.0 µM
[29] = target: TTK (human) (UniProt P33981); test: KINOMEscan competition binding; conditions: for kinase still bound, per cent of control: compound 10.0 µM
[30] = target: TTK (human) (UniProt P33981); test: SelectScreen, TR FRET
[31] = target: BTK (human) (UniProt Q06187); test: KINOMEscan competition binding; conditions: compound 10.0 µM
[32] = target: CDK16 (human) (UniProt Q00536); test: KINOMEscan competition binding; conditions: compound 10.0 µM
[33] = target: CDK7 (human) (UniProt P50613); test: KINOMEscan competition binding; conditions: compound 10.0 µM
[34] = target: CSNK2A1 (human) (UniProt P68400); test: KINOMEscan competition binding; conditions: compound 10.0 µM
[35] = target: CSNK2A2 (human) (UniProt P19784); test: KINOMEscan competition binding; conditions: compound 10.0 µM
[36] = target: HIPK1 (human) (UniProt Q86Z02); test: KINOMEscan competition binding; conditions: compound 10.0 µM
[37] = target: LATS2 (human) (UniProt Q9NRM7); test: KINOMEscan competition binding; conditions: compound 10.0 µM
[38] = target: MAP2K3 (human) (UniProt P46734); test: KINOMEscan competition binding; conditions: compound 10.0 µM
[39] = target: MAP4K4 (human) (UniProt O95819); test: KINOMEscan competition binding; conditions: compound 10.0 µM
[40] = target: MINK1 (human) (UniProt Q8N4C8); test: KINOMEscan competition binding; conditions: compound 10.0 µM
[41] = target: PIK3CA (human) (UniProt P42336); test: KINOMEscan competition binding; conditions: compound 10.0 µM
[42] = system: PIK3CA (human), P42336 [E545K]; test: KINOMEscan competition binding; conditions: compound 10.0 µM
[43] = target: PIK3CB (human) (UniProt P42338); test: KINOMEscan competition binding; conditions: compound 10.0 µM
[44] = target: PIK3CD (human) (UniProt O00329); test: KINOMEscan competition binding; conditions: compound 10.0 µM
[45] = target: PIK3CG (human) (UniProt P48736); test: KINOMEscan competition binding; conditions: compound 10.0 µM
[46] = target: PIM1 (human) (UniProt P11309); test: KINOMEscan competition binding; conditions: compound 10.0 µM
[47] = target: PIM2 (human) (UniProt Q9P1W9); test: KINOMEscan competition binding; conditions: compound 10.0 µM
[48] = target: PIM3 (human) (UniProt Q86V86); test: KINOMEscan competition binding; conditions: compound 10.0 µM
[49] = target: RPS6KA4 KD2 (human) (UniProt O75676); test: KINOMEscan competition binding; conditions: compound 10.0 µM
[50] = target: STK17B (human) (UniProt O94768); test: KINOMEscan competition binding; conditions: compound 10.0 µM
[51] = target: TAOK1 (human) (UniProt Q7L7X3); test: KINOMEscan competition binding; conditions: compound 10.0 µM
[52] = target: PIM1 (human) (UniProt P11309); test: SelectScreen, TR FRET
[53] = target: PIM2 (human) (UniProt Q9P1W9); test: SelectScreen, TR FRET
[54] = target: CSK (human) (UniProt P41240); test: KINOMEscan competition binding; conditions: compound 10.0 µM
[55] = target: MAPK10 (human) (UniProt P53779); test: KINOMEscan competition binding; conditions: compound 10.0 µM
[56] = target: MAPK12 (human) (UniProt P53778); test: KINOMEscan competition binding; conditions: compound 10.0 µM
[57] = target: MAPK14 (human) (UniProt Q16539); test: KINOMEscan competition binding; conditions: compound 10.0 µM
[58] = target: MAPK15 (human) (UniProt Q8TD08); test: KINOMEscan competition binding; conditions: compound 10.0 µM
[59] = target: MAPK8 (human) (UniProt P45983); test: KINOMEscan competition binding; conditions: compound 10.0 µM
[60] = target: MAPK9 (human) (UniProt P45984); test: KINOMEscan competition binding; conditions: compound 10.0 µM
[61] = target: MYLK4 (human) (UniProt Q86YV6); test: KINOMEscan competition binding; conditions: compound 10.0 µM
[62] = target: TLK2 (human) (UniProt Q86UE8); test: KINOMEscan competition binding; conditions: compound 10.0 µM
[63] = target: PLK1 (human) (UniProt P53350); test: KINOMEscan competition binding; conditions: compound 10.0 µM

Chain of DAPK3 (human) (O43293 whole entry, looked up): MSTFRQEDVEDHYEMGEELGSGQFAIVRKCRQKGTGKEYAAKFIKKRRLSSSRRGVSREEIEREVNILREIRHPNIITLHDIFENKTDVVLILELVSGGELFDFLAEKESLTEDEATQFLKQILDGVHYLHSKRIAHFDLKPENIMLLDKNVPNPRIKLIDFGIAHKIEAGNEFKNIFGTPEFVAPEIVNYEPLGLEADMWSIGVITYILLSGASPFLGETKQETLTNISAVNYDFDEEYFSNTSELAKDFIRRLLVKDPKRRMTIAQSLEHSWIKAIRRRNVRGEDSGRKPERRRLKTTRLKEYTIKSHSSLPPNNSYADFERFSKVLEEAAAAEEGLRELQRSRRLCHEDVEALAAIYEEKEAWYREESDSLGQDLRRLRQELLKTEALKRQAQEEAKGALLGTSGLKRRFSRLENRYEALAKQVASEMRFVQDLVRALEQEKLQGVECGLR
Chain of DAPK1 (human) (P53355 whole entry, looked up): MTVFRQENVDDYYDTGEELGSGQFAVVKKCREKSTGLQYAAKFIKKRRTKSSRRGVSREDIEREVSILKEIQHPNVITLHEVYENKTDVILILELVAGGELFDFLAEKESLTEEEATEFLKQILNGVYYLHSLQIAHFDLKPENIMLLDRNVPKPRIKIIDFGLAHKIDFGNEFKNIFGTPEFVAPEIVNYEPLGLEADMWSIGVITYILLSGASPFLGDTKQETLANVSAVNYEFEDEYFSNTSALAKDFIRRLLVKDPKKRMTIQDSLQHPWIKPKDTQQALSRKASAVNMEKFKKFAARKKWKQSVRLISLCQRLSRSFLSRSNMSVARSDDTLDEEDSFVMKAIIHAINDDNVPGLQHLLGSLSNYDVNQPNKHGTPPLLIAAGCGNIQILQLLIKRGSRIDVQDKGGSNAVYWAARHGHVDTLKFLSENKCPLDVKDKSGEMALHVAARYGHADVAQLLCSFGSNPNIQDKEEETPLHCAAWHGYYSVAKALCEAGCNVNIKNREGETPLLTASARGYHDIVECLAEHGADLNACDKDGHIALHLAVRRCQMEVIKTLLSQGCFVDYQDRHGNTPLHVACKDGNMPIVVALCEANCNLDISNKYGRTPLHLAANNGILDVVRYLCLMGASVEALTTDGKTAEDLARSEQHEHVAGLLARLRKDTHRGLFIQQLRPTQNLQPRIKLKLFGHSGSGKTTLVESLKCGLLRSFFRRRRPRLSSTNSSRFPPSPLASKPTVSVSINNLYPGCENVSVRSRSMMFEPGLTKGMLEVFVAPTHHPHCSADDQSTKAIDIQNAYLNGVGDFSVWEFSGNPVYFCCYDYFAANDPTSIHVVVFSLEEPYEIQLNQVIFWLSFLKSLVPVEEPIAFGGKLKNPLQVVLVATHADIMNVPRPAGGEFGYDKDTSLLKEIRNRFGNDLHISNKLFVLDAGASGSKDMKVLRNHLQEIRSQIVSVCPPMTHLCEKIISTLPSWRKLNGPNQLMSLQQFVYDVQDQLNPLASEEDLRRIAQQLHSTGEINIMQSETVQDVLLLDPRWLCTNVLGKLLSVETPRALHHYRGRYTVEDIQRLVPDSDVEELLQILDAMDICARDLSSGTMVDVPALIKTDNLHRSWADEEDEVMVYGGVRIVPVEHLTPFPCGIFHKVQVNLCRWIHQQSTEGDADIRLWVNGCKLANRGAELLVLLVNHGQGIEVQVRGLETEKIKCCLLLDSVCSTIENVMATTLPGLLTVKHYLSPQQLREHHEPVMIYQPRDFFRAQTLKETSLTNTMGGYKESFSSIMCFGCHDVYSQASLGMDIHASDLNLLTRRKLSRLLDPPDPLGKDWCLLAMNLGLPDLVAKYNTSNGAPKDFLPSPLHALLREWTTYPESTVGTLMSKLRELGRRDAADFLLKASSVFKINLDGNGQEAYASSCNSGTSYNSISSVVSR
Chain of PIM2 (human) (Q9P1W9 whole entry, looked up): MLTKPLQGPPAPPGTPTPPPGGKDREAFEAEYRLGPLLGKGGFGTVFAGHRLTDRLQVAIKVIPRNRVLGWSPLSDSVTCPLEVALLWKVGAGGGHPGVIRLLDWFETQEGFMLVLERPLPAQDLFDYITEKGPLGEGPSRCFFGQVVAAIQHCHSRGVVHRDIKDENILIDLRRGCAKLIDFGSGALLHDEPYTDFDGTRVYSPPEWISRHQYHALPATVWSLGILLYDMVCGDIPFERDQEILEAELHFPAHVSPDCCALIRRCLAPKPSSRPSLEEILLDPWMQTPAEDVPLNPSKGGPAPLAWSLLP
Chain of TTK (human) (P33981 whole entry, looked up): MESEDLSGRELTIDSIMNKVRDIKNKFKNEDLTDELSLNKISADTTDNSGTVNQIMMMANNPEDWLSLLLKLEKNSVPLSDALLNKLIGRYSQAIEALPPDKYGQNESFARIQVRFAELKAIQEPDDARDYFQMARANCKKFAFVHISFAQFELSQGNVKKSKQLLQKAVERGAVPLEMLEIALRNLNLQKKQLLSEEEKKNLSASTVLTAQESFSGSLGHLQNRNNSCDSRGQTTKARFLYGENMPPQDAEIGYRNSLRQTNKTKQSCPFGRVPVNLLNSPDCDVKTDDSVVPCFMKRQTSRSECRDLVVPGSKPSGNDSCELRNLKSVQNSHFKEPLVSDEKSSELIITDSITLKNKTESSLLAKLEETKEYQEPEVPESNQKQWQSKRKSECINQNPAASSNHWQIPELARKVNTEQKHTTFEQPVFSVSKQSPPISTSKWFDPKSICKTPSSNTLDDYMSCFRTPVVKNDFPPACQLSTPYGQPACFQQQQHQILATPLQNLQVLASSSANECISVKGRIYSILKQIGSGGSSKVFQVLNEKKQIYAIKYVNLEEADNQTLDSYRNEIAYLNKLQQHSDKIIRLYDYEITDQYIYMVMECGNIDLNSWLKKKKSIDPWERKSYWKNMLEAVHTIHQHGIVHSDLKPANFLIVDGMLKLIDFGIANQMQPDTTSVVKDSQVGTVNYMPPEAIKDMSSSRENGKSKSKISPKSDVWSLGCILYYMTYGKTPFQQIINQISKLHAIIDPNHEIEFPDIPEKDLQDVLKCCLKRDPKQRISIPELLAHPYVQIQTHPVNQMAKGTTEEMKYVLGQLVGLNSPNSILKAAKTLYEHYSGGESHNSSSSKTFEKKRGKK
Chain of RPS6KA1 KD2 (human) (Q15418 whole entry, looked up): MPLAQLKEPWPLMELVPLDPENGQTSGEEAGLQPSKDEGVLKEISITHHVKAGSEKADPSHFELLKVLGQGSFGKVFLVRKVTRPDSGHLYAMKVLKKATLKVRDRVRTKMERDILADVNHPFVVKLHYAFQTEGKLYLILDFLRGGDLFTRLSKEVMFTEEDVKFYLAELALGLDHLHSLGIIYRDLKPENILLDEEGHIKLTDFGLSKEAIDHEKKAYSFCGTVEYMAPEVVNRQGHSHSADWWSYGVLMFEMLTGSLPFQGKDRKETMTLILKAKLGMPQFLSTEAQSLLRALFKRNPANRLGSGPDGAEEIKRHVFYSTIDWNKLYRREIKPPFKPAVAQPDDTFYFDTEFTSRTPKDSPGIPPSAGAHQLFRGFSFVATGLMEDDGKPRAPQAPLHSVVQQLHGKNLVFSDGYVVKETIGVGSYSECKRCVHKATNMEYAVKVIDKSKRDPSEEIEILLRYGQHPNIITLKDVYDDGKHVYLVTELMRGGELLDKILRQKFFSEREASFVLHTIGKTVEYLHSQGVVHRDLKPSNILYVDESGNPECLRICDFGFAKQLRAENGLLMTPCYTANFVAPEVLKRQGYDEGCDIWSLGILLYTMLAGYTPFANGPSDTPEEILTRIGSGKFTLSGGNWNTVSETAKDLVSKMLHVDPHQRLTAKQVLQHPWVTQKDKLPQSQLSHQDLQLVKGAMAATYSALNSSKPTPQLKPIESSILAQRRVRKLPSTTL
Chain of DAPK2 (human) (Q9UIK4 whole entry, looked up): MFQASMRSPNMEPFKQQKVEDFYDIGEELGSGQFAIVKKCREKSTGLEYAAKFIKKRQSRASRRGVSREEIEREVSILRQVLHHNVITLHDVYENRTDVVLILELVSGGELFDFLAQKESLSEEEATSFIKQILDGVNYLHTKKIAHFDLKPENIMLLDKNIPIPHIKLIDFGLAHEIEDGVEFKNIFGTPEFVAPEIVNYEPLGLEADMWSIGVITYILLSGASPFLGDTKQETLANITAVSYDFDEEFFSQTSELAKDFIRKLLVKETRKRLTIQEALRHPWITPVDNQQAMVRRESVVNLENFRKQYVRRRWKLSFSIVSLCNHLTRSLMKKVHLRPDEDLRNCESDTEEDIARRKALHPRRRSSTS
Chain of PIM1 (human) (P11309 whole entry, looked up): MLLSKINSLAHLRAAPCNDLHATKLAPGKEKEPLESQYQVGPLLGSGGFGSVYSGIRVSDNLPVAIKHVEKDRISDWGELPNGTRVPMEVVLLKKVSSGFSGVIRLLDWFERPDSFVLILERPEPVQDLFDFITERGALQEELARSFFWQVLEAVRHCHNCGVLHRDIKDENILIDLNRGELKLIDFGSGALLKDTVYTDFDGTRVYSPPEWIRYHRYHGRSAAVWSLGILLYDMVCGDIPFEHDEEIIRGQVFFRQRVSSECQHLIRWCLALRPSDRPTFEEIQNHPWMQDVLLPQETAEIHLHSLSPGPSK
Chain of STK33 (human) (Q9BYT3 whole entry, looked up): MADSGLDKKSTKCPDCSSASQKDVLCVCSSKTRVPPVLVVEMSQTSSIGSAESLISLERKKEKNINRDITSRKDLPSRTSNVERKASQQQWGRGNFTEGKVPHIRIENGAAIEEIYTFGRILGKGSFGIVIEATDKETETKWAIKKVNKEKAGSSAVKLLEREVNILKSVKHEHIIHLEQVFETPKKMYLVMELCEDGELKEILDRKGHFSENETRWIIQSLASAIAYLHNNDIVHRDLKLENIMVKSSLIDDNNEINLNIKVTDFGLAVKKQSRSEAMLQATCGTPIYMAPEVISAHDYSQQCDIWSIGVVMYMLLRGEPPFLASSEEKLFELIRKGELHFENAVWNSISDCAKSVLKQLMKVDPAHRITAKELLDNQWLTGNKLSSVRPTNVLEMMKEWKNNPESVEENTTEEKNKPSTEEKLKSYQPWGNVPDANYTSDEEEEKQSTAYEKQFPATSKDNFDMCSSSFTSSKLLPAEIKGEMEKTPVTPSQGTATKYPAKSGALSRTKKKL

COc1cc(C(=O)NC2CCN(C)CC2)ccc1Nc1ncc2c(n1)N(C1CCCC1)CCC(=O)N2C
kinase still bound, per cent of control [1]: 16%
kinase still bound, per cent of control [2]: 29%
kinase still bound, per cent of control [3]: 21%
kinase still bound, per cent of control [4]: 27%
kinase still bound, per cent of control [5]: 21%
kinase still bound, per cent of control [6]: 4%
kinase still bound, per cent of control [7]: 12%
kinase still bound, per cent of control [8]: 11%
kinase still bound, per cent of control [9]: 6.1%
kinase still bound, per cent of control [10]: 8.6%
kinase still bound, per cent of control [11]: 33%
kinase still bound, per cent of control [12]: 4.2%
kinase still bound, per cent of control [13]: 20%
kinase still bound, per cent of control [14]: 32%
kinase still bound, per cent of control [15]: 19%
kinase still bound, per cent of control [16]: 2.2%
kinase still bound, per cent of control [17]: 0%
kinase still bound, per cent of control [18]: 11%
kinase still bound, per cent of control [19]: 28%
kinase still bound, per cent of control [20]: 32%
kinase still bound, per cent of control [21]: 2.6%
kinase still bound, per cent of control [22]: 26%
kinase still bound, per cent of control [23]: 25%
kinase still bound, per cent of control [24]: 14%
kinase still bound, per cent of control [25]: 14%
kinase still bound, per cent of control [26]: 12%
kinase still bound, per cent of control [27]: 5.2%
kinase still bound, per cent of control [28]: 28%
Kd [29]: 0.576 µM
kinase still bound, per cent of control [29]: 5.2%
IC50 [30]: 2.28 µM

CS(=O)C1=NC(=O)/C(=C/c2ccc(-c3ccc(S(N)(=O)=O)cc3)o2)S1 (configuration not stated)
kinase still bound, per cent of control [31]: 17%
kinase still bound, per cent of control [32]: 9.3%
kinase still bound, per cent of control [33]: 29%
kinase still bound, per cent of control [34]: 15%
kinase still bound, per cent of control [35]: 21%
kinase still bound, per cent of control [6]: 2.3%
kinase still bound, per cent of control [7]: 3.4%
kinase still bound, per cent of control [8]: 8%
kinase still bound, per cent of control [36]: 3.4%
kinase still bound, per cent of control [37]: 21%
kinase still bound, per cent of control [38]: 33%
kinase still bound, per cent of control [39]: 18%
kinase still bound, per cent of control [40]: 32%
kinase still bound, per cent of control [41]: 12%
kinase still bound, per cent of control [42]: 17%
kinase still bound, per cent of control [43]: 31%
kinase still bound, per cent of control [44]: 30%
kinase still bound, per cent of control [45]: 10%
kinase still bound, per cent of control [46]: 2.4%
kinase still bound, per cent of control [47]: 3.3%
kinase still bound, per cent of control [48]: 2.8%
kinase still bound, per cent of control [18]: 4.7%
kinase still bound, per cent of control [49]: 18%
kinase still bound, per cent of control [50]: 5.2%
kinase still bound, per cent of control [51]: 12%
IC50 [52]: 0.293 µM
IC50 [53]: 0.165 µM

CN(C)C1=NC(=O)/C(=C/c2ccc(-c3ccc(S(N)(=O)=O)cc3)o2)S1
kinase still bound, per cent of control [32]: 0.45%
kinase still bound, per cent of control [33]: 22%
kinase still bound, per cent of control [5]: 33%
kinase still bound, per cent of control [54]: 31%
kinase still bound, per cent of control [36]: 4.3%
kinase still bound, per cent of control [38]: 16%
kinase still bound, per cent of control [55]: 22%
kinase still bound, per cent of control [56]: 33%
kinase still bound, per cent of control [57]: 21%
kinase still bound, per cent of control [58]: 19%
kinase still bound, per cent of control [59]: 33%
kinase still bound, per cent of control [60]: 8.1%
kinase still bound, per cent of control [61]: 24%
kinase still bound, per cent of control [46]: 3.5%
kinase still bound, per cent of control [47]: 3.4%
kinase still bound, per cent of control [48]: 2.9%
kinase still bound, per cent of control [18]: 0.7%
kinase still bound, per cent of control [23]: 31%
kinase still bound, per cent of control [51]: 9.2%
kinase still bound, per cent of control [62]: 33%
kinase still bound, per cent of control [29]: 9%
IC50 [52]: 1.89 µM
IC50 [53]: 6.45 µM

COc1cc(C(=O)NC2CCN(C)CC2)ccc1Nc1ncc2c(n1)N(C1CCC(O)CC1)CCC(=O)N2C (configuration not stated)
kinase still bound, per cent of control [1]: 14%
kinase still bound, per cent of control [6]: 8.2%
kinase still bound, per cent of control [7]: 24%
kinase still bound, per cent of control [8]: 9.9%
kinase still bound, per cent of control [9]: 11%
kinase still bound, per cent of control [10]: 31%
kinase still bound, per cent of control [12]: 2.7%
kinase still bound, per cent of control [14]: 30%
kinase still bound, per cent of control [15]: 23%
kinase still bound, per cent of control [16]: 3%
kinase still bound, per cent of control [63]: 2%
kinase still bound, per cent of control [17]: 4.1%
kinase still bound, per cent of control [18]: 8%
kinase still bound, per cent of control [21]: 7.1%
kinase still bound, per cent of control [22]: 12%
kinase still bound, per cent of control [23]: 15%
kinase still bound, per cent of control [24]: 9.6%
kinase still bound, per cent of control [25]: 22%
kinase still bound, per cent of control [26]: 20%
kinase still bound, per cent of control [27]: 5.6%
kinase still bound, per cent of control [29]: 0.85%
